Data as given in patent publication US9630963B2, “Quinolone derivatives as fibroblast growth factor inhibitors” (Principia Biopharma, Inc., priority 2013, dated 2017).

Columns and labels:
human recombinant FGFR1 = human recombinant FGFR1 (Homo sapiens, UniProt P11362); experiment: FGFR family enzymatic activity assay (Caliper-based kinase assay), FGFR1; format: biochemical; conditions: FGFR1 0.5 nM, ATP 100 μM, peptide substrate 1 μM, room temperature 3 h
Source text: A Caliper-based kinase assay (Caliper Life Sciences, Hopkinton, Mass.) was used to measure inhibition of FGFR family (FGFR1, FGFR2, FGFR3, FGFR4) kinase activity of a compound of Formula (I′) or (I). […] This value is presented as the IC50.

SNU-16 cells = experiment: Inhibition of FGFR2-dependent cell growth (Cell-titer Glo); format: cell-based; conditions: Homo sapiens, SNU16 cells, 72 hrs incubation, cell viability by Cell-titer Glo
Experimental: The cell-based effects of FGFR inhibitors were determined by measuring inhibition of FGFR-dependent cell line growth. […] Percent inhibition of cell growth was calculated as a percentage of untreated cell viability. The percent inhibition was plotted as a function of log compound concentration. The IC50 was then calculated for each compound using Prism software from GraphPad.

Chain of human recombinant FGFR1 (P11362 22-822): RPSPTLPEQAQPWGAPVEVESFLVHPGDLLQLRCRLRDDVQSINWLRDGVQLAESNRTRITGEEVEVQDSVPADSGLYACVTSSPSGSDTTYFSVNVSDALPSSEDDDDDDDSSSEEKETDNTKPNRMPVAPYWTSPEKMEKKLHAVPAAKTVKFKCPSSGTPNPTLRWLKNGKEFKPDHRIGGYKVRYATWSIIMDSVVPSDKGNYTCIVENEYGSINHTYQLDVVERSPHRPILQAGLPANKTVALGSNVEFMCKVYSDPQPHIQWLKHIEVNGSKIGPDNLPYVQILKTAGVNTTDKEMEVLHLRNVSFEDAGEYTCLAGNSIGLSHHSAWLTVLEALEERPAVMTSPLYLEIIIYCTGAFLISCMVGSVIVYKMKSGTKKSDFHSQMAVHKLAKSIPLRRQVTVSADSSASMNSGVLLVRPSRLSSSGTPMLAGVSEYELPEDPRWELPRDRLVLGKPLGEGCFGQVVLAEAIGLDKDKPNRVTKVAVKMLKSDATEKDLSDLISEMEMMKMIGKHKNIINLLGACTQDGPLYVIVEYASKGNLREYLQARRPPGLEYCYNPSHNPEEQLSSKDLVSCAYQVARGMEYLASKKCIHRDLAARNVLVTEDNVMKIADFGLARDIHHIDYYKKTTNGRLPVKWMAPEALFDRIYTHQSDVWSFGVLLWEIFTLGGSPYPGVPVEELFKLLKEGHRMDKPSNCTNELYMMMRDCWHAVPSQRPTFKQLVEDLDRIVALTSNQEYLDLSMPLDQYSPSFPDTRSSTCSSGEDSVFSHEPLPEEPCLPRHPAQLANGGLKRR

| Compound | IC50 (human recombinant FGFR1) | IC50 (SNU-16 cells) |
| --- | --- | --- |
| C=CC(=O)Nc1ccc(CCn2c(=O)c(-c3c(Cl)c(OC)cc(OC)c3Cl)cc3cnc(NC4CCOCC4)nc32)nc1 [Example 81, N-(6-(2-(6-(2,6-dichloro-3,5-dimethoxyphenyl)-7-oxo-2-((tetrahydro-2H-pyran-4-yl)amino)-pyrido[2,3-d]pyrimidin-8(7H)-yl)ethyl)pyridin-3-yl)acrylamide] | 0.3 nM | 4.1 nM |
| C=CC(=O)Nc1ccc(CCn2c(=O)c(-c3c(Cl)c(OC)cc(OC)c3Cl)cc3cnc(NCC(O)CO)nc32)nc1 (centres unmarked) [Example 88, N-(6-(2-(6-(2,6-dichloro-3,5-dimethoxyphenyl)-2-((2,3-dihydroxypropyl)amino)-7-oxopyrido[2,3-d]pyrimidin-8(7H)-yl)ethyl)pyridin-3-yl)acrylamide] | 0.6 nM | 24.6 nM |
| C=CC(=O)Nc1nc(CCn2c(=O)c(-c3c(Cl)c(OC)cc(OC)c3Cl)cc3cnc(NC)nc32)cs1 [Example 41, N-(4-(2-(6-(2,6-dichloro-3,5-dimethoxyphenyl)-2-(methylamino)-7-oxopyrido[2,3-d]pyrimidin-8(7H)-yl)ethyl)thiazol-2-yl)acrylamide] | 5 nM | > 330 nM |
| C=CC(=O)Nc1ccc(CCn2c(=O)c(-c3c(Cl)c(OC)cc(OC)c3Cl)cc3cnc(NCC(C)(C)CO)nc32)cc1 [Example 93, N-(4-(2-(6-(2,6-dichloro-3,5-dimethoxyphenyl)-2-((3-hydroxy-2,2-dimethylpropyl)-amino)-7-oxopyrido[2,3-d]pyrimidin-8(7H)-yl)ethyl)phenyl)acrylamide] | 0.7 nM | 1.5 nM |
| C=CC(=O)Nc1cn(CCn2c(=O)c(-c3cc(OC)cc(OC)c3Cl)cc3cnc(NC)nc32)cn1 [Example 48, N-(1-(2-(6-(2-chloro-3,5-dimethoxyphenyl)-2-(methylamino)-7-oxopyrido[2,3-d]-pyrimidin-8(7H)-yl)ethyl)-1H-imidazol-4-yl)acrylamide] | 48 nM | – |
| CNc1ncc2cc(-c3cc(OC)cc(OC)c3Cl)c(=O)n(CCc3ccc(NC(=O)/C=C/CN(C)C)cc3)c2n1 [Example 22, (E)-N-(4-(2-(6-(2-chloro-3,5-dimethoxyphenyl)-2-(methylamino)-7-oxopyrido[2,3-d]pyrimidin-8(7H)-yl)ethyl)phenyl)-4-(dimethylamino)but-2-enamide] | 0.4 nM | 1 nM |
| C=CC(=O)Nc1ccc(CCn2c(=O)c(-c3c(Cl)c(OC)cc(OC)c3Cl)cc3cnc(NN4CCN(C)CC4)nc32)cc1 [Example 105, N-(4-(2-(6-(2,6-dichloro-3,5-dimethoxyphenyl)-2-((4-methylpiperazin-1-yl)amino)-7-oxopyrido[2,3-d]pyrimidin-8(7H)-yl)ethyl)phenyl)acrylamide] | 1.2 nM | 7.8 nM |
| C=CC(=O)Nc1ccc(CCn2c(=O)c(-c3c(Cl)c(OC)cc(OC)c3Cl)cc3cnc(NC(C)(C)CO)nc32)cc1 [Example 77, N-(4-(2-(6-(2,6-dichloro-3,5-dimethoxyphenyl)-2-((1-hydroxy-2-methylpropan-2-yl)amino)-7-oxopyrido[2,3-d]pyrimidin-8(7H)-yl)ethyl)phenyl)acrylamide] | 2.3 nM | 7 nM |
| C=CC(=O)Nc1ccc(CCn2c(=O)c(-c3c(Cl)c(OC)cc(OC)c3Cl)cc3cnc(NC(C)(CO)CO)nc32)cc1 [Example 91, N-(4-(2-(6-(2,6-dichloro-3,5-dimethoxyphenyl)-2-((1,3-dihydroxy-2-methylpropan-2-yl)amino)-7-oxopyrido[2,3-d]pyrimidin-8(7H)-yl)ethyl)phenyl)acrylamide] | 0.6 nM | 2.9 nM |
| C=CC(=O)Nc1ccc(CCn2c(=O)c(-c3cc(OC)cc(OC)c3Cl)cc3cnc(NCCN4CCOCC4)nc32)c(F)c1 [Example 55, N-(4-(2-(6-(2-chloro-3,5-dimethoxyphenyl)-2-((2-morpholinoethyl)amino)-7-oxopyrido[2,3-d]pyrimidin-8(7H)-yl)ethyl)-3-fluorophenyl)acrylamide] | 2.2 nM | 4.3 nM |
| C=CC(=O)Nc1ccc(CCn2c(=O)c(-c3c(Cl)c(OC)cc(OC)c3Cl)cc3cnc(NCC(C)(C)O)nc32)nc1 [Example 84, N-(6-(2-(6-(2,6-dichloro-3,5-dimethoxyphenyl)-2-((2-hydroxy-2-methylpropyl)-amino)-7-oxopyrido[2,3-d]pyrimidin-8(7H)-yl)ethyl)pyridin-3-yl)acrylamide] | 0.7 nM | 14.5 nM |
| C=CC(=O)Nc1ccc(CCn2c(=O)c(-c3cc(OC)cc(OC)c3Cl)cc3cnc(NCCN(CC)CC)nc32)cn1 [Example 29, N-(5-(2-(6-(2-chloro-3,5-dimethoxyphenyl)-2-((2-(diethylamino)ethyl)amino)-7-oxopyrido[2,3-d]pyrimidin-8(7H)-yl)ethyl)pyridin-2-yl)acrylamide] | 49.3 nM | – |
| C=CC(=O)Nc1ccc(CCn2c(=O)c(-c3c(Cl)cccc3Cl)cc3cnc(NC)nc32)nc1 [Example 107, N-(6-(2-(6-(2,6-dichlorophenyl)-2-(methylamino)-7-oxopyrido[2,3-d]pyrimidin-8(7H)-yl)ethyl)pyridin-3-yl)acrylamide] | 12.5 nM | – |
| C=CC(=O)Nc1ccc(CCn2c(=O)c(-c3c(Cl)cccc3Cl)cc3cnc(NC)nc32)cc1 [Example 106, N-(4-(2-(6-(2,6-dichlorophenyl)-2-(methylamino)-7-oxopyrido[2,3-d]pyrimidin-8(7H)-yl)ethyl)phenyl)acrylamide] | 29.6 nM | – |
| C=CC(=O)Nc1ccc(CCn2c(=O)c(-c3cc(OC)cc(OC)c3Cl)cc3cnc(Nc4ccccn4)nc32)nc1 [Example 108, N-(6-(2-(6-(2-chloro-3,5-dimethoxyphenyl)-7-oxo-2-(pyridin-2-ylamino)pyrido[2,3-d]pyrimidin-8(7H)-yl)ethyl)pyridin-3-yl)acrylamide] | 8.2 nM | – |
| C=CC(=O)Nc1ccc(CCn2c(=O)c(-c3c(Cl)c(OC)cc(OC)c3Cl)cc3cnc(NC(CC)(CO)CO)nc32)nc1 [Example 100, N-(6-(2-(6-(2,6-dichloro-3,5-dimethoxyphenyl)-2-((1-hydroxy-2-(hydroxymethyl)-butan-2-yl)amino)-7-oxopyrido[2,3-d]pyrimidin-8(7H)-yl)ethyl)pyridin-3-yl)acrylamide] | – | 26.2 nM |
| C=CC(=O)Nc1cccc(CCn2c(=O)c(-c3cc(OC)cc(OC)c3F)cc3cnc(NCCCCN(CC)CC)nc32)c1 [Example 42, N-(3-(2-(6-(2-fluoro-3,5-dimethoxyphenyl)-2-(4-diethylaminobutylamino)-7-oxopyrido[2,3-d]pyrimidin-8(7H)-yl)ethyl)phenyl)acrylamide] | 1.8 nM | – |

Further lines, results first:

| IC50 (human recombinant FGFR1) | IC50 (SNU-16 cells) | Compound |
| --- | --- | --- |
| 0.4 nM | 0.4 nM | C=CC(=O)Nc1ccc(CCn2c(=O)c(-c3cc(OC)cc(OC)c3Cl)cc3cnc(NCCN4CCN(C(C)C)CC4)nc32)cc1 [Example 57, N-(4-(2-(6-(2-chloro-3,5-dimethoxyphenyl)-2-((4-isopropylpiperazin-1-yl-ethyl)amino)-7-oxopyrido[2,3-d]pyrimidin-8(7H)-yl)ethyl)phenyl)acylamide] |
| 6 nM | 3.6 nM | C=CC(=O)Nc1cccc(CCn2c(=O)c(-c3cc(OC)cc(OC)c3Cl)cc3cnc(NCCN4CCOCC4)nc32)c1 [Example 35, N-(3-(2-(6-(2-chloro-3,5-dimethoxyphenyl)-2-((2-morpholinoethyl)amino)-7-oxo-pyrido[2,3-d]pyrimidin-8(7H)-yl)ethyl)phenyl)acrylamide] |
| 0.5 nM | 70.4 nM | C=CC(=O)Nc1ccc(CCn2c(=O)c(-c3cc(OC)cc(OC)c3Cl)cc3cnc(NCCN4[C@H](C)CNC[C@@H]4C)nc32)cc1 [Example 82, N-(4-(2-(6-(2-chloro-3,5-dimethoxyphenyl)-2-((2-((2R,6S)-2,6-dimethylpiperazin-1-yl)ethyl)amino)-7-oxopyrido[2,3-d]pyrimidin-8(7H)-yl)ethyl)phenyl)acrylamide] |
| 9.8 nM | – | C=CC(=O)Nc1ccc(CCn2c(=O)c(-c3cc(OC)cc(OC)c3Cl)cc3cnc(NCC4(O)CCN(C)CC4)nc32)cc1 [Example 96, N-(4-(2-(6-(2-chloro-3,5-dimethoxyphenyl)-2-(((4-hydroxy-1-methylpiperidin-4-yl)methyl)-amino)-7-oxopyrido[2,3-d]pyrimidin-8(7H)-yl)ethyl)phenyl)acrylamide] |
| 3.4 nM | – | C=CC(=O)Nc1ccc(CCn2c(=O)c(-c3cc(OC)cc(OC)c3Cl)cc3cnc(NCCN4CCC(F)(F)CC4)nc32)cc1 [Example 111, N-(4-(2-(6-(2-chloro-3,5-dimethoxyphenyl)-2-((2-(4,4-difluoropiperidin-1-yl)-ethyl)amino)-7-oxopyrido[2,3-d]pyrimidin-8(7H)-yl)ethyl)phenyl)acrylamide] |
| 1.9 nM | – | C=CC(=O)Nc1ccc(CCn2c(=O)c(-c3cc(OC)cc(OC)c3Cl)cc3cnc(NCC(C)(C)N4CCOCC4)nc32)cc1 [Example 110, N-(4-(2-(6-(2-chloro-3,5-dimethoxyphenyl)-2-((2-methyl-2-morpholinopropyl)-amino)-7-oxopyrido[2,3-d]pyrimidin-8(7H)-yl)ethyl)phenyl)acrylamide] |
| 1.2 nM | – | C=CC(=O)Nc1ccc(CCn2c(=O)c(-c3cc(OC)cc(OC)c3Cl)cc3cnc(NCCN4C[C@@H](C)N[C@@H](C)C4)nc32)cc1 [Example 85, N-(4-(2-(6-(2-chloro-3,5-dimethoxyphenyl)-2-((2-((3S,5R)-3,5-dimethylpiperazin-1-yl)ethyl)amino)-7-oxopyrido[2,3-d]pyrimidin-8(7H)-yl)ethyl)phenyl)acrylamide] |
| 6.2 nM | – | C=CC(=O)Nc1ccc(CCn2c(=O)c(-c3cc(OC)cc(OC)c3Cl)cc3cnc(NC(C)(CO)CO)nc32)cc1 [Example 95, N-(4-(2-(6-(2-chloro-3,5-dimethoxyphenyl)-2-((1,3-dihydroxy-2-methylpropan-2-yl)amino)-7-oxopyrido[2,3-d]pyrimidin-8(7H)-yl)ethyl)phenyl)acrylamide] |
